Measurements reported in patent US11524950B2, “Treatment of immune-related and inflammatory diseases” (Celgene Corporation, priority 2012, dated 2022).
Like-named read-outs stand apart in the source and are kept apart here.

Columns and labels:
MIP-1α = test: LPS-stimulated hPBMC cytokine production: MIP-1α; type: cell-based; conditions: Homo sapiens
Procedure: (§1) 50 ml human buffy coat was aliquoted 25 ml each into two 50 ml conical tubes and 25 ml sterile HBSS was added to each conical tube. The tubes were gently mixed by inverting. Fifteen ml of room temperature Ficoll-Paque Plus (GE Healthcare (location); cat #17-1440-02) was aliquoted into four 50 ml conical tubes. Then 25 ml of the Buffy coat/HBSS mixture was layered gently and slowly on top of the Ficoll. The samples were centrifuged at 450 rpm for 35 minutes. The top layered containing plasma was pipetted off and discarded. The interface containing mononuclear cells was transferred into two 50 ml conical tubes. Both conical tubes were filled to total volume of 50 ml with HBSS and centrifuged at 1200 rpm for 10 minutes. The cells were washed again in HBSS and spun at 1000 rpm for 10 minutes. Cell pellet was resuspended with 20 ml RPMI complete medium (RPMI/5% human sera/1× pen/strep/glut) and counted.
(§2) One hundred μl (2×10^6/ml) of hPBMCs were added to each well of a 96 well flat-bottom plate (final cell count=2×10^5/well) and incubated at 37° C. for 1 hour. […] compound was added to each test well and twenty μl medium containing 2.5% DMSO was added to each control well ([DMSO]final=0.25%) and plate was incubated for 1 hour at 37° C. Cells were then stimulated with […] 2.5 ng/ml LPS ([LPS]final=1 ng/ml) and incubated for 18 hours at 37° C.
(§3) 50 μl supernatant from each well was transferred into 3 new round-bottomed 96 well plates and stored at −20° C. for Luminex analysis. Duplicate wells were performed for each sample.
(§4) Supernatant samples were analyzed for cytokines in multiplex format according to the manufacturer's instructions (Millipore, Billerica, Ma 01821) using a Luminex IS100 instrument. IL-12 and GM-CSF analyses were done in a two-plex format using neat supernatants while all other cytokines were done in a multiplex format using supernatants diluted 1:20. Data analysis was performed using Upstate Beadview software. […] The IC50 were performed using GraphPad Prism v5.00. […]

[1] = tested on: Human umbilical vascular endothelial cells; test: Human umbilical vascular endothelial cells proliferation assay; type: cell-based; conditions: for IC50: Homo sapiens, Endothelial cell
Procedure: Human Umbilical Vascular Endothelial Cells Proliferation Assay: Human umbilical vascular endothelial cells were thawed and grown in EGM2 medium until passage 3 to 6 for all proliferation assays. Human umbilical vascular endothelial cells were trypsinized, washed with 20% FBS/M199 medium and plated with the same medium at 10^4 cells/100 μL per well to 96-well cell culture plates. The plates were incubated overnight at 37° C. to allow cells to adhere. The cells were then starved in 1% FBS/M199 medium for 18 hours after washing with the same medium 3 times. For optimization of the concentration of the growth factors in the HUVEC proliferation assay, 100 μL/well of the 2× serial diluted growth factors, starting at 100 ng/mL, were added to HUVECs in duplicate for 72 hours at 37° C. in a humidified cell culture incubator with 5% CO2. For analysis of test compounds, a serial dilution of the test compounds in 0.4% DMSO/1% FBS/M199 medium in duplicate was made from the 10 mM stock. Fifty microliters per well of the serially diluted test compounds (10, 1.0, 0.1, 0.01, 0.001, 0.0001, 0.00001 μM) were added to the cells for 1 to 2 hours at 37° C. The final DMSO concentration in the cells is 0.1%. Then 50 μL of 4× final concentration of relative growth factors was added to each well in duplicate for 72 hours at 37° C. in a humidified cell culture incubator with 5% CO2. Thymidine incorporation was measured by adding one microcurie of 3H-thymidine (Amersham) in 20 μL medium to each well and incubated at 37° C. in a humidified cell culture incubator with 5% CO2 for 5 to 6 hours. The cells were then trypsinized and harvested onto UniFilter GF/C filter plates (Perkin Elmer) by using the cell harvester (Tomtec). After the plates were air dried, 20 µL/well of Microscint 20 (Packard) was added then the plates were analyzed in TopCount NXT (Packard). Each well was counted for one minute. The experiments were performed in duplicate in each of 3 donors.
(§5) The percentage inhibition of cell proliferation, tube formation, migration, and invasion was calculated by subtracting the result for unstimulated DMSO control from test sample results, averaging all replicates, and normalizing to the growth factor-stimulated DMSO control (0% inhibition). The IC50 values were calculated by using GraphPad Prism 5.0.

IL-1β = test: LPS-stimulated hPBMC cytokine production: IL-1β; type: cell-based; conditions: Homo sapiens; LPS 1 ng/ml, 18 hours
Procedure: as §1, §2, §3, §4

[2] = tested on: Human umbilical vascular endothelial cells; test: Human umbilical vascular endothelial cell invasion assay; type: cell-based; conditions: for IC50: Homo sapiens; for VEGF-, bFGF-, and HGF-induced HUVEC invasion: dose-dependent
Procedure: Human Umbilical Vascular Endothelial Cell Invasion Assay: In the HUVEC invasion assay, the concentration of human fibronectin is optimized to provide a suitable protein structure for adherent cells to attach to the membrane and allow free migration in response to an angiogenic stimulus (e.g. VEGF, bFGF, or HGF) in the lower chamber of the insertplate. HUVECs were starved in 0.1% BSA EBM2 medium for 6 hours after washing with the same medium 3 times. The cells were then trypsinized and centrifuged to remove the remaining trypsin. Then ˜0.5 to 1×10^6 cells in 125 μL/well and 125 μL of […] serially diluted compounds (10, 1, 0.1, 0.01, 0.001 μM) were added to the upper chamber of the BD Falcon 24-well and 96-well insert plates in duplicate and incubated for […]. (The plates contain a fluorescence blocking, microporous [3.0 μm pore size] PET membrane that has been evenly coated with human fibronectin.) Seven hundred fifty microliters of a 1.33×stock solution of VEGF (final concentration of 25 ng/mL), bFGF (final concentration of 10 ng/mL), or HGF (final concentration of 25 ng/mL) were then added to the lower chamber. The cells were incubated for 22±1 hours at 37° C. The migrated cells were stained with calcein AM at […] in HBSS containing 2% FBS, using 500 μL/well in 24-well plates and 200 μL/well in 96-well plates. The plates were incubated at 37° C. for 90 minutes and read in a fluorescence plate reader.
as §5

RANTES = test: LPS-stimulated hPBMC cytokine production: RANTES enhancement; type: cell-based, human; conditions: at 0.1 μM
Procedure: as §1, §2, §3, §4

[3] = read-out: bFGF (10 ng/mL) IC50 Values (μM), bFGF-induced proliferation
[4] = HGF-induced proliferation, read-out: HGF (25 ng/mL) IC50 Values
[5] = VEGF-induced proliferation, read-out: VEGF (25 ng/mL) IC50 Values
[6] = Endothelial cell, HGF 25 ng/mL, read-out: HGF-induced invasion IC50 Values
[7] = Endothelial cell, VEGF 25 ng/mL, read-out: VEGF-induced invasion IC50 Values
[8] = Endothelial cell, bFGF 10 ng/mL, read-out: bFGF-induced invasion IC50 Values
[9] = HUVEC, growth factor not given, read-out: IC50 (HUVEC invasion)
[10] = LPS 1 ng/ml, 18 hours, read-out: MIP-1α IC50

SMILES | IC50 (MIP-1α; 18 h, read-out: MIP-1α IC50 (μM)) [µM] | VEGF-, bFGF-, or HGF-induced HUVEC proliferation [1] | IC50 [1, 3] [µM] | IC50 [1, 4] [µM] | IC50 [1, 5] [µM] | concentrations with significant enhancement of proliferation ([1]; bFGF-treated HUVECs) [µM] | IC50 (IL-1β) [nM] | IC50 [2, 6] [nM] | IC50 [2, 7] [nM] | IC50 [2, 8] [nM] | IC50 [2, 9] [nM] | VEGF-, bFGF-, and HGF-induced HUVEC invasion [2] | RANTES Mean % of Control (RANTES) | IC50 (MIP-1α; [10]) [µM] | concentrations with significant enhancement of proliferation ([1]; VEGF-treated HUVECs) [µM]
O=C1CCC(N2Cc3c(OCc4ccc(CN5CCOCC5)cc4)cccc3C2=O)C(=O)N1 (racemic) [Racemate, 3-[4-(4-morphlin-4-ylmethylbenzyloxy)-1-oxo-1,3-dihydro-isoindo-2-yl]piperidine-2,6-dione] | 0.19 | did not inhibit | 99 | 24 | > 100 | 0.01 to 1 | 0.85 | 590 | 0.14 | 0.42 | 0.4 | significantly inhibited | 153 % of control |  | 
O=C1CC[C@@H](N2Cc3c(OCc4ccc(CN5CCOCC5)cc4)cccc3C2=O)C(=O)N1 [R-enantiomer, (R)-3-[4-(4-morphlin-4-ylmethylbenzyloxy)-1-oxo-1,3-dihydro-isoindo-2-yl]piperidine-2,6-dione] |  | did not inhibit | 76 | 38 | > 100 |  | 6.2 | 450 | < 0.1 | 13 | 13 | significantly inhibited | 151 % of control | 0.45 | 
O=C1CC[C@H](N2Cc3c(OCc4ccc(CN5CCOCC5)cc4)cccc3C2=O)C(=O)N1 [Test compound, (S)-3-[4-(4-morphlin-4-ylmethylbenzyloxy)-1-oxo-1,3-dihydro-isoindo-2-yl]piperidine-2,6-dione] |  | did not inhibit | 52 | 51 | > 100 |  | 0.46 | 19 | < 0.1 | < 0.1 | < 0.1 | significantly inhibited | 153 % of control | 0.028 | 1 to 10
